Assay results taken from patent publication US20160333419A1, “GENE SIGNATURES ASSOCIATED WITH SENSITIVITY TO MDM2 INHIBITORS” (DAIICHI SANKYO COMPANY, LIMITED, priority 2014, published 2016).

Assays:
HT1376 = assay: OncoPanel cytotoxicity assay; assay type: cell-based; settings: Homo sapiens, HT-1376, 72 hour incubation
Procedure, shortened: (§1)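 Cells grown in RPMI 1640 with 10% FBS (or a special medium) at 37° C, 5% CO2 were treated 24 hours after seeding for 72 hours with 10 concentrations (3.16-fold dilutions, 0.1% DMSO final). Nuclei were dye-stained and imaged; IC50 was fit from percent of control relative cell count.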

SK-N-DZ = assay: OncoPanel cytotoxicity assay; assay type: cell-based; settings: Homo sapiens, 72 hour incubation
Procedure, shortened: as §1

SKMES1 = assay: OncoPanel cytotoxicity assay; assay type: cell-based; settings: Homo sapiens, SK-MES-1, 72 hour incubation
Procedure, shortened: as §1

SW620 = assay: OncoPanel cytotoxicity assay; assay type: cell-based; settings: Homo sapiens, SW-620, 72 hour incubation
Procedure, shortened: as §1

[1] = tested on: multi-cancer cell line panel; assay: OncoPanel cytotoxicity assay, whole panel summary; assay type: cell-based, human
Protocol: This Example describes an evaluation of the effect of a representative small molecule MDM2i on the growth of cells in a multi-cancer cell line panel. In this Example, the MDM2 inhibitors used were Compound A and Compound B p-toluenensulfonate. The panel included 250 human cancer cell lines (OncoPanel™, Ricerca Biosciences, Painesville, Ohio) that were evaluated in a high content drug screening analysis. The relative IC50 values for the cell lines were determined.
Cells were grown in RPMI 1640, 10% FBS, 2 mM L-alanyl-L-Glutamine, 1 mM Na Pyruvate, or a special medium in a humidified atmosphere of 5% CO2 at 37° C. Cells were seeded into 384-well plates and incubated in a humidified atmosphere of 5% CO2 at 37° C. Test compounds were added 24 hours post cell seeding. At the same time, a time zero, untreated cell plate was generated as a control. After a 72 hour incubation period, cells were fixed and stained with nuclear dye to allow visualization of nuclei.
Compounds were serially diluted 3.16-fold and assayed over 10 concentrations of inhibitor in a final assay concentration of 0.1% DMSO from the highest test concentration specified in the sample information chapter. Automated fluorescence microscopy was carried out using a GE Healthcare InCell Analyzer 1000, and images were collected with a 4× objective. Twelve bit tiff images were acquired using the InCell Analyzer 1000 3.2 and analyzed with Developer Toolbox 1.6 software.
Cell proliferation was measured by the signal intensity of the incorporated nuclear dye. The cell proliferation assay output is referred to as the relative cell count. To determine the cell proliferation end point, the cell proliferation data output is transformed to percent of control (POC) using the following formula: […]
Relative cell count IC50 (IC50) is the test compound's concentration that produces 50% of the cell proliferation inhibitory response or 50% cytotoxicity level. IC50 values were calculated using nonlinear regression to fit data to a sigmoidal 4 point, 4 parameter One-Site dose response model, where: y (fit)=A+[(B−A)/(1+((C/x)̂D))]. […]

CTG-0093 Colorectal = assay: Champions TumorGraft model, tumor growth inhibition; assay type: in vivo, mice; settings: 100 mg/kg/dose p.o./qd × 10, TGI evaluation Day 9
Text: (§2) Patient-derived xenograft models (Champions TumorGraftTM; Champions Oncology, Inc., Hackensack, N.J.) were used. Champions TumorGraftsTM provide a highly focused, accelerated translational platform, which is based upon the implantation of primary human tumors in immune-deficient mice followed by propagation of the resulting low-passage Champions TumorGraftsTM in a manner that preserves the biological characteristics of the original human tumor. […] The TumorGraftsTM models allow a comparison of gene expression analysis of patients' cancer samples and Champions TumorGraftTM samples by microarray expression analysis. Large numbers (e.g., 30,000) of genes are analyzed. […] Female immunocompromised nu/nu mice (Harlan) between 6-9 weeks of age were housed on irradiated […]-enriched 1⁄8'' corncob bedding ([…]) in individual HEPA ventilated cages (Innocage® IVC, Innovive USA) and were kept on a 12-hour light-dark cycle at 68-74° F. (20-23° C.) and 30-70% humidity. Animals were fed water ad libitum (reverse osmosis, 2 ppm C12) and an irradiated Test rodent diet (Teklad 2919) consisting of 19% protein, 9% fat, and 4% fiber. Animals were implanted bilaterally in the flank region with tumor fragments harvested from tumored host animals, each implanted from a specific passage lot. Pre-study tumor volumes were recorded for each experiment beginning approximately one week prior to its estimated start date. When tumors reached approximately 125-250 mm^3, animals were matched by tumor volume into treatment and control groups, and dosing was initiated (Day 0). Animals in all studies were tagged and followed individually throughout the experiment. Initial dosing for standard agents began on Day 0; animals in all groups were dosed by weight (0.01 ml per gram; 10 ml/kg). Dose concentration(s), route(s) of administration and schedule(s) for each group are listed in the Experimental Design section, wherein “p.o./qd×10” indicates orally (by mouth) daily for 10 days. The experimental design of the human tumor graft model study is presented below in Table 4. “n” indicates the number of animals per group; “ROA” indicates route of administration of the test agent, i.e., the MDM2i drug. Beginning on Day 0, tumor dimensions were measured twice weekly by digital caliper and data including individual and mean estimated tumor volumes (Mean TV±SEM) were recorded for each group. Tumor volume was calculated using the formula (1): TV=width^2×length×0.52. At study completion, percent tumor growth inhibition (% TGI) values were calculated and reported for each treatment group (T) versus control (C) using initial (i) and final (f) tumor measurements and the formula (2): % TGI=1-Tf-Ti/Cf-C. The tumor growth inhibition (TGI) values on the scheduled dates closest to the last administration are summarized Table 5 below. In this example, the study duration was defined by the tumor size of the vehicle control. In some cases, for example, that of CTG-0213 in Table 5, required a longer time period for the tumor to reach a threshold size. As a result, the test animals treated with the MDM2i Compound B were also left for a longer time period, e.g., 40 days in the case of CTG-0213, without MDM2i treatment. […] Thus, the evaluation of TGI was set to be near the end of the treatment period, such as around Day 7-11 (around Day 9).

CTG-0501 Melanoma = assay: as above; assay type: in vivo, mice; settings: 100 mg/kg/dose p.o./qd × 10, TGI evaluation Day 11
Text: as §2

[2] = share of the cell lines of the panel

In the case of `CC[C@@H]1CNC2(CC2)CN1C(=O)[C@@H]1C[C@@H](F)CN1C(=O)C1=C(C(C)C)N2C(=N[C@@](C)(c3ccc(Cl)nc3)[C@H]2c2ccc(Cl)c(F)c2)S1` [Compound A, [(5R,6S)-5-(4-Chloro-3-fluorophenyl)-6-(6-chloropyridin-3-yl)-6-methyl-3-(propan-2-yl)-5,6-dihydroimidazo[2,1-b][1,3]thiazol-2-yl][(2S,4R)-2-{[(6R)-6-ethyl-4,7-diazaspiro[2.5]oct-7-yl]carbonyl}-4-fluoropyrrolidin-1-yl]methanone], the IC50 (HT1376) is reported as 38.9 µM, the IC50 (SK-N-DZ) is reported as over 40 µM and the IC50 (SKMES1) is reported as 33.8 µM. For the same compound, the IC50 (SW620) was over 40 µM, the IC50 ([1]; Homo sapiens, range over all cell lines of the panel, read-out: Cell line IC50 values ranged) was at least 0.12 µM and the “cell lines with IC50 values of <1 μM” value [1, 2] was “Approximately 25%”. The “cell lines with IC50 values of >10 μM” value [1, 2] was “approximately 70%”.
Work on `CC1(C)CCC2(CC1)N[C@@H](C(=O)N[C@@H]1CC[C@@H](C(N)=O)OC1)[C@H](c1ccnc(Cl)c1F)[C@]21C(=O)Nc2cc(Cl)ccc21` [Compound B, (3′R,4′S,5′R)—N-[(3R,6S)-6-carbamoyltetrahydro-2H-pyran-3-yl]-6″-chloro-4′-(2-chloro-3-fluoropyridin-4-yl)-4,4-dimethyl-2″-oxo-1″,2″-dihydrodispiro[cyclohexane-1,2′-pyrrolidine-3′,3″-indole]-5′-carboxamide] yielded an IC50 (HT1376) of over 10 µM, an IC50 (SK-N-DZ) of over 10 µM and an IC50 (SKMES1) of 8.73 µM. For the same compound, the IC50 (SW620) was 7.12 µM, the “% TGI” value (CTG-0093 Colorectal) was 53% and the “% TGI” value (CTG-0501 Melanoma) was 101%.
